The values below come from patent US20090088432A1, “Thiazolinones and Oxazolinones and their Use as Ptp1b Inhibitors” (priority 2005, published 2009).

Each structure is given as a SMILES string.

For this assay, the target named is T1, Recombinant human Protein-tyrosine phosphatase1B (PTP1B) (Homo sapiens, UniProt P18031).
T1 construct: Recombinant human Protein-tyrosine phosphatase1B (PTP1B) (amino acid 1-322 Biomol, USA); purchased Biomol, USA
T1 sequence (P18031 1-322): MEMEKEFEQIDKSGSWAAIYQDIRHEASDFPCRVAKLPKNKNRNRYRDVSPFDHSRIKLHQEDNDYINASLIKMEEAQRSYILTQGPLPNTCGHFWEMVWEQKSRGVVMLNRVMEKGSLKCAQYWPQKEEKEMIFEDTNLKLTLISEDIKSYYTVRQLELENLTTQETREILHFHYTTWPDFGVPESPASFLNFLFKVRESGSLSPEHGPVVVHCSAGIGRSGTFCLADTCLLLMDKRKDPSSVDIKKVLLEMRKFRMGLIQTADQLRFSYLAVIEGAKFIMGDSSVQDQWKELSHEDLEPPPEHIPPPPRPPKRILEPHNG
The assay can be described thus: PTP1B enzyme inhibition assay (pNpp substrate). It counts as biochemical. Conditions: inhibition of recombinant human PTP1B, pNpp 5 mM, 30 mins at 25° C; inhibitor concentration not given. How it is done: Protein tyrosine phosphatase 1B (PTP1B) is an intracellular enzyme which functions by removing the phosphate groups from phosphorylated tyrosine residues of cellular proteins. PTP1B has been implicated as a negative regulator of insulin action and therefore is of therapeutic interest. The ability of the test compounds to inhibit the activity of PTP1B is determined using an enzyme inhibition assay.
The assay is performed using two independent substrates of PTP1B namely, p-nitrophenyl phosphate (pNpp) and the phosphorylated Epidermal growth factor receptor peptide (EGFR).
In the assay performed with pNpp, the action of PTP1B results in the release of p-nitrophenol, which is yellow in colour and can be measured at 410 nm. In the case of the assay using EGFR, action of PTP1B results in the release of free phosphate group. This is trapped using a reagent containing ammonium molybdate and malachite green resulting in a colored complex whose absorbance can be measured at 620 nm.
1× Assay buffer 50 mM HEPES (pH 7.4) • 1 mM EDTA • 1 mM DTT • 0.05% Igepal® CA-630
Dilute recombinant Human PTP1B 1:150 in 1× Assay buffer for 10× stock,
Prepare 10× stock of pNpp (50 mM) in 1× Assay buffer
Prepare 100× stock in 100% DMSO, dilute 1:10 with 1× Assay buffer to get 10× stock in 10% DMSO.
PTP1B inhibition assay was performed using recombinant human PTP1B. PTP1B (0.016 μg/well) was incubated in a buffer containing 50 mM HEPES, 1 mM DTT, 1 mM EDTA and 0.05% Igepal® CA-630 with or without inhibitor (10× stock, final DMSO concentration is 1%) for 30 mins at 25° C. This was followed by addition of p-Nitrophenyl phosphate (pNpp) substrate (5 mM). The final volume of the reaction mixture is 50 μL and experiment was done in 96 well half area plate. The incubation was continued for 30 mins at 25° C. The conversion of pNpp to p-Nitrophenol (pNp) was measured at 410 nm in Spectramaxplus Spectrophotometer (Molecular Devices, USA).
On to `O=C1N=C(Nc2ccc(CC(C(=O)O)C(=O)O)cc2)SC1=Cc1ccc(-c2ccccc2)cc1` [Compound 67, 2-[4-(5-Biphenyl-4-ylmethylene-4-oxo-4,5-dihydro-thiazol-2-ylamino)-benzyl]-malonic acid], for which the “Activity Score” value is listed as “(++) (++ = 20-50% inhibition)”.

With `O=C(O)Cc1ccc(NC2=NC(=O)C(=Cc3coc4ccccc4c3=O)S2)cc1` [Compound 71, {4-[4-oxo-5-(4-oxo-4H-chromen-3-ylmethylene)-4,5-dihydro-thiazol-2-ylamino]-phenyl}-acetic acid], the “Activity Score” value is given as “(+++) (+++ = >50% inhibition)”.

For `O=C(O)Cc1ccc(NC2=NC(=O)C(=Cc3ccc(C(F)(F)F)cc3)S2)cc1` [Compound 72, {4-[4-Oxo-5-(4-trifluoro methyl-benzylidene)-4,5-dihydro-thiazol-2-ylamino]-phenyl}-acetic acid], the “Activity Score” value is “(+) (+ = 10-20% inhibition)”.

Consider `CCC(C(=O)[O-])c1ccc(NC2=NC(=O)C(=Cc3cc4ccccc4cc3OCc3ccccc3)S2)cc1.[Na+]` [Compound 84, 2-{4-[L-(3-Benzyloxy-naphthalen-2-ylmethylene)-4-oxo-4,5-dihydro-thiazol-2-ylamino]-phenyl}-sodium butyrate], for which the “Activity Score” value was “(+++) (+++ = >50% inhibition)”.

Regarding `O=C(O)Cc1ccc(NC2=NC(=O)C(=Cc3cc4ccccc4cc3OCc3ccc(F)cc3)S2)cc1` [Compound 85, (4-{5-[3-(4-Fluoro-benzyloxy)-naphthalen-2-ylmethylene]-4-oxo-4,5-dihydro-thiazol-2-ylamino}-phenyl)-acetic acid], the “Activity Score” value was “(+++) (+++ = >50% inhibition)”.

For `O=C(O)Cc1ccc(NC2=NC(=O)C(=Cc3cccc(-n4cncn4)c3)S2)cc1` [Compound 87, {4-[4-Oxo-5-(3-[1,2,4]triazol-1-yl-benzylidene)-4,5-dihydro-thiazol-2-ylamino]-phenyl}-acetic acid], the “Activity Score” value was “(+) (+ = 10-20% inhibition)”.

As for `O=C(O)Cc1ccc(NC2=NC(=O)C(=Cc3cccc(-n4cnc5ccccc54)c3)S2)cc1` [Compound 88, {4-[5-(3-Benzoimidazol-1-yl-benzylidene)-4-oxo-4,5-dihydro-thiazol-2-ylamino]-phenyl}-acetic acid], the “Activity Score” value was “(+++) (+++ = >50% inhibition)”.

With `O=C([O-])CCc1ccc(NC2=NC(=O)C(=Cc3ccc4ccccc4c3)S2)cc1.[Na+]` [Compound 89, 3-[4-(5-Naphthalen-2-ylmethylene-4-oxo-4,5-dihydro-thiazol-2-ylamino)-phenyl]-sodium propionate], the “Activity Score” value is reported as “(+) (+ = 10-20% inhibition)”.

As to `O=C(O)Cc1ccc(NC2=NC(=O)C(=Cc3cccc(N4CCN(c5ccccn5)CC4)c3)S2)cc1` [Compound 90, (4-{4-Oxo-5-[3-(4-pyridin-2-yl-piperazin-1-yl)-benzylidene]-4,5-dihydro-thiazol-2-ylamino}-phenyl)-acetic acid], the “Activity Score” value was “(+++) (+++ = >50% inhibition)”.

For `O=C(O)Cc1ccc(NC2=NC(=O)C(=Cc3cccc(-n4cccn4)c3)S2)cc1` [Compound 91, {4-[4-Oxo-5-(3-pyrazol-1-yl-benzylidene)-4,5-dihydro-thiazol-2-ylamino]-phenyl}-acetic acid], the “Activity Score” value was “(++) (++ = 20-50% inhibition)”.

Turning to `O=C(O)Cc1ccc(NC2=NC(=O)C(=Cc3ccc(-c4ccccc4)cc3)S2)cc1` [Compound 94, [4-(5-Biplenyl-4-ylmethylene-4-oxo-4,5-dihydro-thiazol-2-ylamino)-phenyl]-acetic acid], the “Activity Score” value was “(+) (+ = 10-20% inhibition)”.

For the compound `O=C([O-])CCc1ccc(NC2=NC(=O)C(=Cc3cc4ccccc4cc3OCc3ccccc3)S2)cc1.[Na+]` [Compound 96, 3-{4-[5-(3-Benzyloxy-naphthalen-2-ylmethylene)-4-oxo-4,5-dihydro-thiazol-2-lamino]-phenyl}-sodium propionate], the “Activity Score” value is on record as “(+++) (+++ = >50% inhibition)”.

Consider `O=C(O)Cc1ccc(NC2=NC(=O)C(=Cc3ccc(-c4ccccc4)cc3)O2)cc1` [Compound 100, [4-(5-Biphenyl-4-ylmethylene-4-oxo-4,5-dihydro-oxazol-2-ylamino)-phenyl]-acetic acid], for which the “Activity Score” value is on record as “(++) (++ = 20-50% inhibition)”.

For the compound `O=C(Cc1ccc(NC2=NC(=O)C(=Cc3ccc(-n4cccn4)cc3)S2)cc1)NS(=O)(=O)c1ccccc1` [Compound 103, N-(2-{4-[4-Oxo-5-(4-pyrazol-1-yl-benzylidene)-4,5-dihydro-thiazol-2-ylamino]-phenyl}-acetyl)-benzenesulfonamide], the “Activity Score” value is given as “(+) (+ = 10-20% inhibition)”.

As for `Cc1ccc(S(=O)(=O)NC(=O)Cc2ccc(NC3=NC(=O)C(=Cc4cc5ccccc5cc4OCc4ccccc4)S3)cc2)cc1.[Na]` [Compound 104, N-(2-{4-[5-(3-Benzyloxy-naphthalen-2-ylmethylene)-4-oxo-4,5-dihydro-thiazol-2-ylamino]-phenyl}-acetyl)-4-methyl-benzenesulfonamide sodium salt], the “Activity Score” value is listed as “(++) (++ = 20-50% inhibition)”.

In the case of `O=C([O-])Cc1ccc(NC2=NC(=O)C(=Cc3cc4ccccc4cc3OCc3ccc(F)cc3)S2)cc1.[Na+]` [Compound 113, (4-{5-[3-(4-Fluoro-benzyloxy)-naphthalen-2-ylmethylene-4-oxo-4,5-dihydro-thiazol-2-ylamino)-phenyl]-acetyl}-sodium acetate], the “Activity Score” value is listed as “(+++) (+++ = >50% inhibition)”.

On to `Cc1ccc(S(=O)(=O)NC(=O)Cc2ccc(NC3=NC(=O)C(=Cc4ccc5c(c4)OCCO5)S3)cc2)cc1` [Compound 125, N-(2-{4-[5-(2,3-Dihydro-benzo[1,4]dioxin-6-ylmethylene)-4-oxo-4,5-dihydro-thiazol-2-ylamino]-phenyl}-acetyl)-4-methyl-benzenesulfonamide], for which the “Activity Score” value is “(+++) (+++ = >50% inhibition)”.

`O=C(O)Cc1csc(NC2=NC(=O)C(=Cc3ccc(-c4ccccc4)cc3)S2)n1` [Compound 130, [2-(5-Biphenyl-4-ylmethylene-4-oxo-4,5-dihydro-thiazol-2-ylamino)-thiazol-4-yl]-acetic acid]: the “Activity Score” value is “(++) (++ = 20-50% inhibition)”.

As to `Cc1ccc(S(=O)(=O)NC(=O)Cc2ccc(NC3=NC(=O)C(=Cc4ccc(-n5cnnn5)c(OCc5ccccc5)c4)S3)cc2)cc1.[Na]` [Compound 131, N-(2-{4-[5-(3-Benzyloxy-4-tetrazol-1-yl-benzylidene)-4-oxo-4,5-dihydro-thiazol-2-ylamino]-phenyl}-acetyl)-4-methyl-benzenesulfonamide sodium salt], the “Activity Score” value was “(+++) (+++ = >50% inhibition)”.

As to `O=C(O)Cc1csc(NC2=NC(=O)C(=Cc3cc4ccccc4cc3OCc3ccccc3)S2)n1` [Compound 133, {2-[5-(3-Benzyloxy-naphthalen-2-ylmethylene)-4-oxo-4,5-dihydro-thiazol-2-ylamino]-thiazol-4-yl}-acetic acid], the “Activity Score” value is recorded as “(+++) (+++ = >50% inhibition)”.

Turning to `Cc1cc(C=C2SC(Nc3nc(CC(=O)O)cs3)=NC2=O)nn1-c1ccccc1` [Compound 134, {2-[5-(5-Methyl-1-phenyl-1H-pyrazol-3-ylmethylene)-4-oxo-4,5-dihydro-thiazol-2-ylamino]-thiazol-4-yl}-acetic acid], the “Activity Score” value is “(++) (++ = 20-50% inhibition)”.

As to `O=C(O)Cc1ccc(NC2=NC(=O)C(=Cc3cc4ccccc4cc3OCC3CCCO3)S2)cc1` (stereo not drawn) [Compound 142, (4-{4-Oxo-5-[3-(tetrahydro-furan-2-ylmethoxy)-naphthalen-2-ylmethylene]-4,5-dihydro-thiazol-2-ylamino}-phenyl)-acetic acid], the “Activity Score” value is given as “(++) (++ = 20-50% inhibition)”.

For `COc1c(C=C2SC(Nc3ccc(CC(=O)O)cc3)=NC2=O)ccc2ccccc12` [Compound 146, {4-[5-(1-Methoxy-naphthalen-2-ylmethylene)-4-oxo-4,5-dihydro-thiazol-2-ylamino]-phenyl}-acetic acid], the “Activity Score” value is “(+++) (+++ = >50% inhibition)”.

Consider `O=C(O)COc1ccc2cc(C=C3SC(Nc4ccc(CC(=O)O)cc4)=NC3=O)ccc2c1` [Compound 163, {4-[5-(6-Carboxymethoxy-naphthalen-2-ylmethylene)-4-oxo-4,5-dihydro-thiazol-2-ylamino]-phenyl}-acetic acid], for which the “Activity Score” value is “(+++) (+++ = >50% inhibition)”.
